Experimental data: ChEMBL document CHEMBL1201862, “PubChem BioAssay data set” (2004)
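Five concentrations, 48 hours, 96-well plates. The concentration for 50% growth inhibition is given as GI50.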 Active and inactive are the calls of the source. No stated cut-off is given here; in the data, active = GI50 up to about 1.1 µM and inactive = higher.

Legend:
Experiment in all cases: NCI tumour cell line growth inhibition, 48 h
COLO 205 = test system: COLO 205
HOP-62 = test system: HOP-62
NCI-H522 = test system: NCI-H522
NCI-H23 = test system: NCI-H23
OVCAR-3 = test system: OVCAR-3
U-251 = test system: U-251
HCT-116 = test system: HCT-116
SK-MEL-28 = test system: SK-MEL-28
A549 = test system: A549
A498 = test system: A498
SK-MEL-5 = test system: SK-MEL-5
SF-295 = test system: SF-295
RPMI-8226 = test system: RPMI-8226
M19-MEL = test system: M19-MEL
SK-MEL-2 = test system: SK-MEL-2
RXF 393 = test system: RXF 393
HCC 2998 = test system: HCC 2998
MDA-MB-435 = test system: MDA-MB-435
MDA-N = test system: MDA-N
BT-549 = test system: BT-549

| SMILES | GI50 (COLO 205) | GI50 (HOP-62) | GI50 (NCI-H522) | GI50 (NCI-H23) | GI50 (OVCAR-3) | GI50 (U-251) | GI50 (HCT-116) | GI50 (SK-MEL-28) | GI50 (A549) | GI50 (A498) | GI50 (SK-MEL-5) | GI50 (SF-295) | GI50 (RPMI-8226) | GI50 (M19-MEL) | GI50 (SK-MEL-2) | GI50 (RXF 393) | GI50 (HCC 2998) | GI50 (MDA-MB-435) | GI50 (MDA-N) | GI50 (BT-549) |
| --- | --- | --- | --- | --- | --- | --- | --- | --- | --- | --- | --- | --- | --- | --- | --- | --- | --- | --- | --- | --- |
| Cc1cn(C2C=CC(=O)C(C)O2)c(=O)[nH]c1=O (stereo not drawn) | 17.5 µM (inactive) | 20.6 µM (inactive) | 16.6 µM (inactive) | 18.1 µM (inactive) | 17.4 µM (inactive) | 15.3 µM (inactive) | 12.2 µM (inactive) | 14.9 µM (inactive) | 39 µM (inactive) | 38.1 µM (inactive) | 14.7 µM (inactive) | 17.5 µM (inactive) | 20.5 µM (inactive) | 15.8 µM (inactive) | – | – | – | – | – | – |
| Cc1ccc(S(=O)(=O)OC(c2ccc(Cl)cc2Cl)C2OC(=O)c3ccccc32)cc1 (stereo not drawn) | 83.2 µM (inactive) | > 100 µM (inactive) | 57.9 µM (inactive) | > 100 µM (inactive) | 40.4 µM (inactive) | 56.4 µM (inactive) | 30.8 µM (inactive) | > 100 µM (inactive) | 68.5 µM (inactive) | – | 53.1 µM (inactive) | 90.2 µM (inactive) | 36.7 µM (inactive) | > 100 µM (inactive) | 73.6 µM (inactive) | 67.1 µM (inactive) | – | – | – | – |
| CCc1ccccc1NC(=O)C(=O)C(C#N)c1c(Cl)cccc1Cl (stereo not drawn) | – | – | > 100 µM (inactive) | > 100 µM (inactive) | > 100 µM (inactive) | > 100 µM (inactive) | > 100 µM (inactive) | > 100 µM (inactive) | > 100 µM (inactive) | – | – | > 100 µM (inactive) | > 100 µM (inactive) | > 100 µM (inactive) | > 100 µM (inactive) | – | – | – | – | – |
| Cc1cc2c(cc1C)[n+]([O-])c(C(=O)C/C(=N/OCCCc1ccccc1)C(=O)Nc1cc(Cl)ccc1Cl)c(C)[n+]2[O-] | > 100 µM (inactive) | > 100 µM (inactive) | > 100 µM (inactive) | > 100 µM (inactive) | > 100 µM (inactive) | > 100 µM (inactive) | > 100 µM (inactive) | > 100 µM (inactive) | > 100 µM (inactive) | > 100 µM (inactive) | > 100 µM (inactive) | > 100 µM (inactive) | – | > 100 µM (inactive) | 0.0562 µM (active) | > 100 µM (inactive) | > 100 µM (inactive) | – | – | – |
| CCOC(=O)C1=C(C)N2CCOC2(C)C(C(=O)OC)C1c1cccc(Cl)c1 (stereo not drawn) | > 100 µM (inactive) | > 100 µM (inactive) | 88.7 µM (inactive) | > 100 µM (inactive) | > 100 µM (inactive) | > 100 µM (inactive) | > 100 µM (inactive) | > 100 µM (inactive) | > 100 µM (inactive) | > 100 µM (inactive) | > 100 µM (inactive) | > 100 µM (inactive) | > 100 µM (inactive) | > 100 µM (inactive) | > 100 µM (inactive) | – | > 100 µM (inactive) | – | – | – |
| CCOC(=O)/C(C#N)=C(O)/C(=C/c1ccccc1Cl)NC(=O)c1ccccc1 | > 100 µM (inactive) | > 100 µM (inactive) | 0.0195 µM (active) | > 100 µM (inactive) | > 100 µM (inactive) | > 100 µM (inactive) | 30.3 µM (inactive) | > 100 µM (inactive) | > 100 µM (inactive) | > 100 µM (inactive) | > 100 µM (inactive) | > 100 µM (inactive) | 26.6 µM (inactive) | > 100 µM (inactive) | – | – | > 100 µM (inactive) | – | – | – |
| N#CCc1c(-c2ccccc2)n(S(=O)(=O)c2ccccc2)c2ccccc12 | > 100 µM (inactive) | 36.1 µM (inactive) | > 10 µM (inactive) | 33.7 µM (inactive) | > 100 µM (inactive) | > 100 µM (inactive) | 37.1 µM (inactive) | > 100 µM (inactive) | > 100 µM (inactive) | – | > 100 µM (inactive) | 25.1 µM (inactive) | 31.2 µM (inactive) | > 100 µM (inactive) | > 100 µM (inactive) | – | > 100 µM (inactive) | – | – | – |
| Cc1ccc(SSCCCCS(=O)O)cc1 | 19.5 µM (inactive) | 28.7 µM (inactive) | 12.5 µM (inactive) | 17.9 µM (inactive) | 17.8 µM (inactive) | 10.6 µM (inactive) | 20.7 µM (inactive) | 17.1 µM (inactive) | 18.5 µM (inactive) | 19.1 µM (inactive) | 11.5 µM (inactive) | 26.4 µM (inactive) | – | 12.2 µM (inactive) | 25.1 µM (inactive) | 12.7 µM (inactive) | 25.1 µM (inactive) | – | – | – |
| Cc1cc(Br)ccc1/N=N/c1c(C)nn(-c2ccccc2)c1-c1ccccc1 | > 100 µM (inactive) | > 100 µM (inactive) | 51.6 µM (inactive) | > 100 µM (inactive) | 99.5 µM (inactive) | 27 µM (inactive) | 9.08 µM (inactive) | > 100 µM (inactive) | 81.8 µM (inactive) | > 100 µM (inactive) | 29 µM (inactive) | 75.2 µM (inactive) | > 100 µM (inactive) | > 100 µM (inactive) | > 100 µM (inactive) | 33.3 µM (inactive) | – | – | – | – |
| CC(=O)OCCOCn1c2ccccc2c2c3c(c4c5ccccc5n(COCCOC(C)=O)c4c21)C(=O)N(Cc1ccccc1)C3=O | > 100 µM (inactive) | > 100 µM (inactive) | – | > 100 µM (inactive) | – | > 100 µM (inactive) | > 100 µM (inactive) | > 100 µM (inactive) | > 100 µM (inactive) | > 100 µM (inactive) | > 100 µM (inactive) | – | > 100 µM (inactive) | > 100 µM (inactive) | > 100 µM (inactive) | > 100 µM (inactive) | > 100 µM (inactive) | – | – | – |
| O=C(O)C[C@H]1CCCCC12CCOC2=O (stereo partly drawn) | > 100 µM (inactive) | > 100 µM (inactive) | > 100 µM (inactive) | > 100 µM (inactive) | > 100 µM (inactive) | > 100 µM (inactive) | > 100 µM (inactive) | > 100 µM (inactive) | > 100 µM (inactive) | – | > 100 µM (inactive) | > 100 µM (inactive) | > 100 µM (inactive) | > 100 µM (inactive) | 87.5 µM (inactive) | > 100 µM (inactive) | > 100 µM (inactive) | – | – | – |
| COc1ccc(C(=O)C(C(=O)CCC(=O)Nc2cccc(Cl)c2)c2ccc(OC)cc2)cc1 (stereo not drawn) | > 100 µM (inactive) | > 100 µM (inactive) | > 100 µM (inactive) | > 100 µM (inactive) | > 100 µM (inactive) | > 100 µM (inactive) | > 100 µM (inactive) | > 100 µM (inactive) | > 100 µM (inactive) | > 100 µM (inactive) | > 100 µM (inactive) | > 100 µM (inactive) | > 100 µM (inactive) | > 100 µM (inactive) | > 100 µM (inactive) | – | > 100 µM (inactive) | – | – | – |
| CCOC(=O)C1=C(C)NC(=S)NC1c1cccc(O)c1 (stereo not drawn) [MONASTROL] | 31.6 µM (inactive) | 68.1 µM (inactive) | 30.3 µM (inactive) | 59.8 µM (inactive) | 50.9 µM (inactive) | 33.9 µM (inactive) | 34.9 µM (inactive) | 81.5 µM (inactive) | 52.1 µM (inactive) | 37.1 µM (inactive) | 36.6 µM (inactive) | 30.5 µM (inactive) | 31 µM (inactive) | – | 32.4 µM (inactive) | 25.5 µM (inactive) | 40 µM (inactive) | 17.2 µM (inactive) | 18.2 µM (inactive) | 56.6 µM (inactive) |
| Cn1c2ccc(F)cc2c2ccc3c(c21)C(=O)C=CC3=O | 7.08 µM (inactive) | > 66.5 µM (inactive) | 2.15 µM (inactive) | 13.8 µM (inactive) | 7.21 µM (inactive) | 14.3 µM (inactive) | 6.73 µM (inactive) | 13.8 µM (inactive) | > 64.1 µM (inactive) | 55.7 µM (inactive) | 16.9 µM (inactive) | 66.1 µM (inactive) | 6.93 µM (inactive) | – | 23.1 µM (inactive) | 3.28 µM (inactive) | 26.9 µM (inactive) | 16.4 µM (inactive) | 13.3 µM (inactive) | 14 µM (inactive) |
| [N-]=[N+]=NC1(Cc2ccccc2)C(=O)c2cccc3c2N(CCC3)C1=O (stereo not drawn) | > 100 µM (inactive) | > 100 µM (inactive) | > 100 µM (inactive) | > 100 µM (inactive) | – | > 100 µM (inactive) | > 100 µM (inactive) | > 100 µM (inactive) | > 100 µM (inactive) | – | > 100 µM (inactive) | > 100 µM (inactive) | > 100 µM (inactive) | > 100 µM (inactive) | > 100 µM (inactive) | > 100 µM (inactive) | – | – | – | – |
| O=C1C2C3C=C4c5ccccc5N(c5ccccc5)C4(C2C(=O)N1c1ccccc1)C1C(=O)N(c2ccccc2)C(=O)C31 (stereo not drawn) | 35.6 µM (inactive) | > 100 µM (inactive) | – | > 100 µM (inactive) | – | > 100 µM (inactive) | > 100 µM (inactive) | 8.17 µM (inactive) | > 100 µM (inactive) | 2.34 µM (inactive) | – | > 100 µM (inactive) | – | 5.13 µM (inactive) | > 100 µM (inactive) | – | > 100 µM (inactive) | – | – | – |
| CCCCC(/C=N/NC(=N)N)CC.Cc1cc(O)c(C(C)C)cc1S(=O)(=O)O | 18.2 µM (inactive) | 39.7 µM (inactive) | > 100 µM (inactive) | 35 µM (inactive) | 37.2 µM (inactive) | 33.4 µM (inactive) | 43.3 µM (inactive) | 40.6 µM (inactive) | 65.8 µM (inactive) | – | – | 42.5 µM (inactive) | 38.8 µM (inactive) | 48.3 µM (inactive) | – | 24.9 µM (inactive) | 17.5 µM (inactive) | – | – | – |
